# Reference: patent publication US9908895B2, “Tricyclic fused thiophene derivatives as JAK inhibitors” (Incyte Corporation, priority 2012, dated 2018)
# Tested on: human JAK1
# Assay: In vitro JAK kinase assay (HTRF), JAK1
# Format: biochemical
# Conditions: ratio of JAK2 IC50 to JAK1 IC50 at 1 mM ATP
# Method: Compounds herein were tested for inhibitory activity of JAK targets according to the following in vitro assay described in Park et al., Analytical Biochemistry 1999, 269, 94-104. The catalytic domains of human JAK1 (a.a. 837-1142), JAK2 (a.a. 828-1132) and JAK3 (a.a. 781-1124) were expressed using baculovirus in insect cells and purified. The catalytic activity of JAK1, JAK2 or JAK3 was assayed by measuring the phosphorylation of a biotinylated peptide. The phosphorylated peptide was detected by homogenous time resolved fluorescence (HTRF). IC50s of compounds were measured for each kinase in the 40 μL reactions that contain the enzyme, ATP and 500 nM peptide in 50 mM Tris (pH 7.8) buffer with 100 mM NaCl, 5 mM DTT, and 0.1 mg/mL (0.01%) BSA. For the 1 mM IC50 measurements, ATP concentration in the reactions was 1 mM. Reactions were carried out at room temperature for 1 hour and then stopped with 20 μL 45 mM EDTA, 300 nM SA-APC, 6 nM Eu-Py20 in assay buffer (Perkin Elmer, Boston, Mass.). Binding to the Europium labeled antibody took place for 40 minutes and HTRF signal was measured on a PHERA star plate reader (BMG, Cary, N.C.). The Example compounds were each tested in the Example A assay (see Table 1 for data for the compounds of the examples as tested by the assay of Example A at 1 mM ATP).
row,Compound,JAK2/JAK1
1,"CC(N)c1nc2cnc3ccsc3c2n1[C@H]1CC[C@H](CC#N)OC1.O=C(O)C(F)(F)F (stereo partly drawn) [Example 68, {(2R,5S)-5-[2-(1-Aminoethyl)-1H-imidazo[4,5-d]thieno[3,2-b]pyridin-1-yl]tetrahydro-2H-pyran-2-yl}acetonitrile trifluoroacetate]",>10
2,"CC(=O)NC(C)c1nc2cnc3ccsc3c2n1[C@H]1CC[C@H](CC#N)OC1 (stereo partly drawn) [Example 69, N-(1-{1-[(3S,6R)-6-(Cyanomethyl)tetrahydro-2H-pyran-3-yl]-1H-imidazo[4,5-d]thieno[3,2-b]pyridin-2-yl}ethyl)acetamide]",>10
3,"CNC(C)c1nc2cnc3ccsc3c2n1[C@H]1CC[C@H](CC#N)OC1 (stereo partly drawn) [Example 70, ((2R,5S)-5-{2-[1-(Methylamino)ethyl]-1H-imidazo[4,5-d]thieno[3,2-b]pyridin-1-yl}tetrahydro-2H-pyran-2-yl)acetonitrile]",>10
4,"CC(F)c1nc2cnc3ccsc3c2n1[C@H]1CC[C@H](CC#N)OC1 (stereo partly drawn) [Example 71, {(2R,5S)-5-[2-(1-Fluoroethyl)-1H-imidazo[4,5-d]thieno[3,2-b]pyridin-1-yl]tetrahydro-2H-pyran-2-yl}acetonitrile]",>10
5,"N#CCc1nc2cnc3ccsc3c2n1[C@H]1CC[C@H](CC#N)OC1 [Example 73, {(2R,5S)-5-[2-(Cyanomethyl)-1H-imidazo[4,5-d]thieno[3,2-b]pyridin-1-yl]tetrahydro-2H-pyran-2-yl}acetonitrile]",>10
6,"N#CCc1nc2cnc3ccsc3c2n1[C@H]1CC[C@@H](CC#N)OC1 [Example 74, {(2S,5S)-5-[2-(Cyanomethyl)-1H-imidazo[4,5-d]thieno[3,2-b]pyridin-1-yl]tetrahydro-2H-pyran-2-yl}acetonitrile]",>10
7,"C[C@@H](O)c1nc2cnc3ccsc3c2n1[C@H]1CC[C@H](CNS(C)(=O)=O)OC1 [Example 75, N-[((2R,5S)-5-{2-[(1R)-1-Hydroxyethyl]-1H-imidazo[4,5-d]thieno[3,2-b]pyridin-1-yl}tetrahydro-2H-pyran-2-yl)methyl]methanesulfonamide]",>10
8,"CC(C)OC(=O)NC[C@H]1CC[C@H](n2c([C@@H](C)O)nc3cnc4ccsc4c32)CO1 [Example 76, Isopropyl [((2R,5S)-5-{2-[(1R)-1-hydroxyethyl]-1H-imidazo[4,5-d]thieno[3,2-b]pyridin-1-yl}tetrahydro-2H-pyran-2-yl)methyl]carbamate]",>10
9,"COC(=O)NC[C@H]1CC[C@H](n2c([C@@H](C)O)nc3cnc4ccsc4c32)CC1 [Example 78, Methyl [(trans-4-{2-[(1R)-1-hydroxyethyl]-1H-imidazo[4,5-d]thieno[3,2-b]pyridin-1-yl}cyclohexyl)methyl]carbamate]",>10
10,"CC(=O)NC[C@H]1CC[C@H](n2c([C@@H](C)O)nc3cnc4ccsc4c32)CC1 [Example 79, N-[(trans-4-{2-[(1R)-1-Hydroxyethyl]-1H-imidazo[4,5-d]thieno[3,2-b]pyridin-1-yl}cyclohexyl)methyl]acetamide]",>10
11,"((1R,2R,4S)-2-Hydroxy-4-{2-[(1R)-1-hydroxyethyl]-1H-imidazo[4,5-d]thieno[3,2-b]pyridin-1-yl}cyclohexyl)acetonitrile and ((1S,2S,4R)-2-hydroxy-4-{2-[(1R)-1-hydroxyethyl]-1H-imidazo[4,5-d]thieno[3,2-b]pyridin-1-yl}cyclohexyl)acetonitrile [36 (first peak)]",>10
12,"((1R,2R,4S)-2-Hydroxy-4-{2-[(1R)-1-hydroxyethyl]-1H-imidazo[4,5-d]thieno[3,2-b]pyridin-1-yl}cyclohexyl)acetonitrile and ((1S,2S,4R)-2-hydroxy-4-{2-[(1R)-1-hydroxyethyl]-1H-imidazo[4,5-d]thieno[3,2-b]pyridin-1-yl}cyclohexyl)acetonitrile [36 (second peak)]",>10
13,"((1R,2S,4S)-2-Hydroxy-4-{2-[(1R)-1-hydroxyethyl]-1H-imidazo[4,5-d]thieno[3,2-b]pyridin-1-yl}cyclohexyl)acetonitrile trifluoacetate and ((1S,2R,4R)-2-hydroxy-4-{2-[(1R)-1-hydroxyethyl]-1H-imidazo[4,5-d]thieno[3,2-b]pyridin-1-yl}cyclohexyl)acetonitrile trifluoacetate [37 (first peak)]",>10
14,"((1R,2S,4S)-2-Hydroxy-4-{2-[(1R)-1-hydroxyethyl]-1H-imidazo[4,5-d]thieno[3,2-b]pyridin-1-yl}cyclohexyl)acetonitrile trifluoacetate and ((1S,2R,4R)-2-hydroxy-4-{2-[(1R)-1-hydroxyethyl]-1H-imidazo[4,5-d]thieno[3,2-b]pyridin-1-yl}cyclohexyl)acetonitrile trifluoacetate [37 (second peak)]",>10
15,"[(1R,2S,4S)-4-(2-Ethyl-1H-imidazo[4,5-d]thieno[3,2-b]pyridin-1-yl)-2-hydroxycyclohexyl]acetonitrile and [(1S,2R,4R)-4-(2-ethyl-1H-imidazo[4,5-d]thieno[3,2-b]pyridin-1-yl)-2-hydroxycyclohexyl]acetonitrile [40 (first peak)]",>10

# The remaining lines, values ahead:
row,JAK2/JAK1,Compound
1,>10,"C[C@@H](O)c1nc2cnc3ccsc3c2n1[C@H]1CC[C@H](CNS(C)(=O)=O)CC1 [Example 80, N-[(trans-4-{2-[(1R)-1-Hydroxyethyl]-1H-imidazo[4,5-d]thieno[3,2-b]pyridin-1-yl}cyclohexyl)methyl]methanesulfonamide]"
2,>10,"C[C@@H](O)c1nc2cnc3ccsc3c2n1[C@H]1CC[C@H](CNC(=O)N(C)C)CC1 [Example 81, N′-[(trans-4-{2-[(1R)-1-Hydroxyethyl]-1H-imidazo[4,5-d]thieno[3,2-b]pyridin-1-yl}cyclohexyl)methyl]-N,N-dimethylurea]"
3,>10,"CCOC(=O)NC[C@H]1CC[C@H](n2c([C@@H](C)O)nc3cnc4ccsc4c32)CC1 [Example 82, Ethyl [(trans-4-{2-[(1R)-1-hydroxyethyl]-1H-imidazo[4,5-d]thieno[3,2-b]pyridin-1-yl}cyclohexyl)methyl]carbamate]"
4,>10,"CCCOC(=O)NC[C@H]1CC[C@H](n2c([C@@H](C)O)nc3cnc4ccsc4c32)CC1 [Example 83, Propyl [(trans-4-{2-[(1R)-1-hydroxyethyl]-1H-imidazo[4,5-d]thieno[3,2-b]pyridin-1-yl}cyclohexyl)methyl]carbamate]"
5,>10,"CC(C)OC(=O)NC[C@H]1CC[C@H](n2c([C@@H](C)O)nc3cnc4ccsc4c32)CC1 [Example 84, Isopropyl [(trans-4-{2-[(1R)-1-hydroxyethyl]-1H-imidazo[4,5-d]thieno[3,2-b]pyridin-1-yl}cyclohexyl)methyl]carbamate]"
6,>10,"C[C@@H](O)c1nc2cnc3ccsc3c2n1[C@H]1CC[C@H](CNC(=O)OC2CCOC2)CC1 (stereo partly drawn) [Example 85, Tetrahydrofuran-3-yl [(trans-4-{2-[(1R)-1-hydroxyethyl]-1H-imidazo[4,5-d]thieno[3,2-b]pyridin-1-yl}cyclohexyl)methyl]carbamate]"
7,>10,"COC(=O)NC[C@H]1CC[C@H](n2c(CC#N)nc3cnc4ccsc4c32)CC1 [Example 86, Methyl({trans-4-[2-(cyanomethyl)-1H-imidazo[4,5-d]thieno[3,2-b]pyridin-1-yl]cyclohexyl}methyl)carbamate]"
8,>10,"CCOC(=O)NC[C@H]1CC[C@H](n2c(CC#N)nc3cnc4ccsc4c32)CC1 [Example 87, Ethyl({trans-4-[2-(cyanomethyl)-1H-imidazo[4,5-d]thieno[3,2-b]pyridin-1-yl]cyclohexyl}methyl)carbamate]"
9,>10,"CC(C)OC(=O)NC[C@H]1CC[C@H](n2c(CC#N)nc3cnc4ccsc4c32)CC1 [Example 88, Isopropyl({trans-4-[2-(cyanomethyl)-1H-imidazo[4,5-d]thieno[3,2-b]pyridin-1-yl]cyclohexyl}methyl)carbamate]"
10,>10,"CCC(=O)NC[C@H]1CC[C@H](n2c(CC#N)nc3cnc4ccsc4c32)CC1 [Example 89, N-({trans-4-[2-(Cyanomethyl)-1H-imidazo[4,5-d]thieno[3,2-b]pyridin-1-yl]cyclohexyl}methyl)propanamide]"
11,>10,"N#CCc1nc2cnc3ccsc3c2n1[C@H]1CC[C@H](CC#N)CC1 [Example 90, {1-[trans-4-(Cyanomethyl)cyclohexyl]-1H-imidazo[4,5-d]thieno[3,2-b]pyridin-2-yl}acetonitrile]"
12,>10,"N#CC[C@H]1CC[C@H](n2c(CO)nc3cnc4ccsc4c32)CO1 [Example 91, {(2R,5S)-5-[2-(Hydroxymethyl)-1H-imidazo[4,5-d]thieno[3,2-b]pyridin-1-yl]tetrahydro-2H-pyran-2-yl}acetonitrile]"
